Assay results taken from patent US20080031967A1, “Compositions, products and methods for controlling weight in a mammal” (priority 2005, published 2008).

Legend:
primary rat adipocytes [1] = test: thermogenesis assay: oxygen consumption by adipocytes (oxygen probe); type: cell-based; conditions: fatty acid oxidation inhibitors
Experimental: Thermogenesis was measured using an oxygen probe to monitor oxygen consumption by the adipocytes as they oxidize fatty acids. This assay was developed in primary rat adipocytes (isolated as above) using a YSI 5300 monitor equipped with oxygen-sensitive electrodes in an 8-chamber air tight apparatus. […] Since oxygen consumption can be induced by both the Kreb's cycle (glucose metabolism) and β-oxidation (fatty acid metabolism), fatty acid oxidation inhibitors were used to test whether the increase in oxygen consumption is indeed induced by fatty acid oxidation. Valproic acid inhibits the entry of fatty acid into the mitochondria and 4-pentenoic acid inhibits β-ketothiolase (the enzyme in the last step of β-oxidation). […] It has been discovered that the use of the above-listed thermogenic agents in accordance with the present invention results in the effective modulation of thermogenesis in mammals. By “effective,” it is meant that administration of the thermogenic agents of the present invention results in a 10 to 15% increase in thermogenic activity in the in vitro oxygen consumption assay. Without wishing to be bound by theory, it is believed that the thermogenic agents of the present invention function by increasing the rate at which fatty acids are transported into the mitochondria and oxidized in the cell.

isolated rat adipocytes = conditions: dissolved oxygen monitor; cited from earlier work
primary rat adipocytes [2] = conditions: validation compound, stated as known; cited from earlier work

| Compound | effect on oxygen consumption induced by norepinephrine (primary rat adipocytes [1]) | also measured |
| --- | --- | --- |
| C=CCCC(=O)O [4-pentenoic acid] | inhibit oxygen consumption induced by norepinephrine | – |
| leptin: adipocyte-derived hormone | – | effect on beta-oxidation in adipocytes (isolated rat adipocytes): stimulates beta-oxidation |
| CCCC(CCC)C(=O)O [Valproic acid] | inhibit oxygen consumption induced by norepinephrine | – |
| NC[C@H](O)c1ccc(O)c(O)c1 [norepinephrine] | – | effect on rate of fatty acid oxidation and oxygen consumption (primary rat adipocytes [2]): increase the rate of fatty acid oxidation and oxygen consumption |
